pIC50: −log10 of the molar value.
molecular target: HSP90 (Homo sapiens, UniProt P07900); test: HSP90 inhibition (HSP90 IC50); assay type: biochemical

SMILES	pIC50
COc1cccc(C(=O)N[C@H]2C[C@H]3CC[C@@H](C2)N3c2ccc(C(=O)NCCCC(OC)OC)cn2)c1C [N-[4,4-bis(methyloxy)butyl]-6-[3-endo-({[2-methyl-3-(methyloxy)phenyl]carbonyl}amino)-8-azabicyclo[3.2.1]oct-8-yl]pyridine-3-carboxamide]	5.70 to 6.00
CC(=O)c1ccc(N2[C@@H]3CC[C@H]2C[C@@H](NC(=O)c2cc(C)c(C(N)=O)cc2C)C3)nc1 [N-[8-(5-acetylpyridin-2-yl)-8-azabicyclo[3.2.1]oct-3-endo-yl]-2,5-dimethylbenzene-1,4-dicarboxamide]	> 6.30
CCCCCNc1cc(C(=O)N[C@H]2C[C@H]3CC[C@@H](C2)N3c2ccc(C(C)=O)cn2)c(C)cc1C(N)=O [N-[8-(5-acetylpyridin-2-yl)-8-azabicyclo[3.2.1]oct-3-endo-yl]-2-methyl-5-(pentylamino)benzene-1,4-dicarboxamide]	> 6.30
CC(=O)c1ccc(N2[C@@H]3CC[C@H]2C[C@@H](NC(=O)c2cc(NC4CCC(C(F)(F)F)CC4)c(C(N)=O)cc2C)C3)nc1 (stereo partly drawn) [N-[8-(5-acetylpyridin-2-yl)-8-azabicyclo[3.2.1]oct-3-endo-yl]-2-methyl-5-{[4-(trifluoromethyl)cyclohexyl]amino} benzene-1,4-dicarboxamide]	> 6.30
CCC(CC)Nc1cc(C(=O)N[C@H]2C[C@H]3CC[C@@H](C2)N3c2ccc(C(C)=O)cn2)c(F)cc1C(N)=O [N-[8-(5-acetylpyridin-2-yl)-8-azabicyclo[3.2.1]oct-3-endo-yl]-5-[(1-ethylpropyl)amino]-2-fluorobenzene-1,4-dicarboxamide]	> 6.30
CC(=O)c1ccc(N2C3CCC2CC(NC(=O)c2cc(N[C@H]4CC[C@H](O)CC4)c(C(N)=O)cc2C)C3)nc1 (stereo partly drawn) [N-[8-(5-acetylpyridin-2-yl)-8-azabicyclo[3.2.1]oct-3-endo-yl]-5-[(trans-4-hydroxycyclohexyl)amino]-2-methylbenzene-1,4-dicarboxamide]	> 6.30
CCN1CC(NC(=O)c2ccc(N3[C@@H]4CC[C@H]3C[C@@H](NC(=O)c3cc(C)c(C(N)=O)cc3C)C4)nc2)C1 [N-[8-(5-{[(1-ethylazetidin-3-yl)amino]carbonyl}pyridin-2-yl)-8-azabicyclo[3.2.1]oct-3-endo-yl]-2,5-dimethylbenzene-1,4-dicarboxamide]	> 6.30
CCN1CCC(NC(=O)c2ccc(N3[C@@H]4CC[C@H]3C[C@@H](NC(=O)c3cc(C)c(C(N)=O)cc3C)C4)nc2)CC1 [N-[8-(5-{[(1-ethylpiperidin-4-yl)amino]carbonyl}pyridin-2-yl)-8-azabicyclo[3.2.1]oct-3-endo-yl]-2,5-dimethylbenzene-1,4-dicarboxamide]	6.00 to 6.30
NC(=O)c1ccc(C(=O)N[C@H]2C[C@H]3CC[C@@H](C2)N3c2ccc(C(=O)NCc3ccccc3)cn2)cc1 [N-[8-(5-{[(phenylmethyl)amino]carbonyl}pyridin-2-yl)-8-azabicyclo[3.2.1]oct-3-endo-yl]benzene-1,4-dicarboxamide]	> 6.30
NC(=O)c1ccc(C(=O)N[C@H]2C[C@H]3CC[C@@H](C2)N3c2ccc(C(=O)NCc3cccnc3)cn2)cc1 [N-[8-(5-{[(pyridin-3-ylmethyl)amino]carbonyl}pyridin-2-yl)-8-azabicyclo[3.2.1]oct-3-endo-yl]benzene-1,4-dicarboxamide]	> 6.30
COc1cccc(C(=O)NC2CC3CCC(C2)N3c2ccc(C(=O)N[C@H](C)C(C)C)cn2)c1C (stereo partly drawn) [N-[(1R)-1,2-dimethylpropyl]-6-[3-endo-({[2-methyl-3-(methyloxy)phenyl]carbonyl}amino)-8-azabicyclo[3.2.1]oct-8-yl]pyridine-3-carboxamide]	5.00 to 5.70
COc1cccc(C(=O)NC2CC3CCC(C2)N3c2ccc(C(=O)N[C@@H]3CC4CCC3C4)cn2)c1C (stereo partly drawn) [N-[(1R,2R,4S)-bicyclo[2.2.1]hept-2-yl]-6-[3-endo-({[2-methyl-3-(methyloxy)phenyl]carbonyl}amino)-8-azabicyclo[3.2.1]oct-8-yl]pyridine-3-carboxamide]	5.70 to 6.00
COc1cccc(C(=O)NC2CC3CCC(C2)N3c2ccc(C(=O)N[C@@H](C)C(C)C)cn2)c1C (stereo partly drawn) [N-[(1S)-1,2-dimethylpropyl]-6-[3-endo-({[2-methyl-3-(methyloxy)phenyl]carbonyl}amino)-8-azabicyclo[3.2.1]oct-8-yl]pyridine-3-carboxamide]	5.70 to 6.00
COc1cccc(C(=O)NC2CC3CCC(C2)N3c2ccc(C(=O)N[C@@H](C)c3ccc(Cl)cc3)cn2)c1C (stereo partly drawn) [N-[(1S)-1-(4-chlorophenyl)ethyl]-6-[3-endo-({[2-methyl-3-(methyloxy)phenyl]carbonyl}amino)-8-azabicyclo[3.2.1]oct-8-yl]pyridine-3-carboxamide]	> 6.30
CCN(CC)CCOc1ccc([C@H](C)NC(=O)c2ccc(N3C4CCC3CC(NC(=O)c3cccc(OC)c3C)C4)nc2)c(F)c1 (stereo partly drawn) [N-[(1S)-1-(4-{[2-(diethylamino)ethyl]oxy}-2-fluorophenyl)ethyl]-6-[3-endo-({[2-methyl-3-(methyloxy)phenyl]carbonyl}amino)-8-azabicyclo[3.2.1]oct-8-yl]pyridine-3-carboxamide]	> 6.30
CCN(CC)CCOc1ccc([C@H](C)NC(=O)c2ccc(N3C4CCC3CC(NC(=O)c3cccc(OC)c3C)C4)nc2)cc1 (stereo partly drawn) [N-[(1S)-1-(4-{[2-(diethylamino)ethyl]oxy}phenyl)ethyl]-6-[3-endo-({[2-methyl-3-(methyloxy)phenyl]carbonyl}amino)-8-azabicyclo[3.2.1]oct-8-yl]pyridine-3-carboxamide]	> 6.30
COC[C@H](C)NC(=O)c1ccc(N2C3CCC2CC(NC(=O)c2cccc(OC)c2C)C3)nc1 (stereo partly drawn) [N-[(1S)-1-methyl-2-(methyloxy)ethyl]-6-[3-endo-({[2-methyl-3-(methyloxy)phenyl]carbonyl}amino)-8-azabicyclo[3.2.1]oct-8-yl]pyridine-3-carboxamide]	5.70 to 6.00
COc1cccc(C(=O)NC2CC3CCC(C2)N3c2ccc(C(=O)N[C@@H](C)C(N)=O)cn2)c1C (stereo partly drawn) [N-[(1S)-2-amino-1-methyl-2-oxoethyl]-6-[3-endo-({[2-methyl-3-(methyloxy)phenyl]carbonyl}amino)-8-azabicyclo[3.2.1]oct-8-yl]pyridine-3-carboxamide]	6.00 to 6.30
COc1cccc(C(=O)NC2CC3CCC(C2)N3c2ccc(C(=O)N[C@@H](C)CO)cn2)c1C (stereo partly drawn) [N-[(1S)-2-hydroxy-1-methylethyl]-6-[3-endo-({[2-methyl-3-(methyloxy)phenyl]carbonyl}amino)-8-azabicyclo[3.2.1]oct-8-yl]pyridine-3-carboxamide]	5.70 to 6.00
COc1cccc(C(=O)NC2CC3CCC(C2)N3c2ccc(C(=O)N[C@H]3CCCC[C@@H]3O)cn2)c1C (stereo partly drawn) [N-[(1S,2S)-2-hydroxycyclohexyl]-6-[3-endo-({[2-methyl-3-(methyloxy)phenyl]carbonyl}amino)-8-azabicyclo[3.2.1]oct-8-yl]pyridlne-3-carboxamide]	5.00 to 5.70
COc1cccc(C(=O)NC2CC3CCC(C2)N3c2ccc(C(=O)NCC3COC(C)(C)O3)cn2)c1C (stereo not drawn) [N-[(2,2-dimethyl-1,3-dioxolan-4-yl)methyl]-6-[3-endo-({[2-methyl-3-(methyloxy)phenyl]carbonyl}amino)-8-azabicyclo[3.2.1]oct-8-yl]pyridine-3-carboxamide]	5.00 to 5.70
COc1cccc(C(=O)N[C@H]2C[C@H]3CC[C@@H](C2)N3c2ccc(C(=O)NCc3ccc(F)cc3F)cn2)c1C [N-[(2,4-difluorophenyl)methyl]-6-[3-endo-({[2-methyl-3-(methyloxy)phenyl]carbonyl}amino)-8-azabicyclo[3.2.1]oct-8-yl]pyridine-3-carboxamide]	> 6.30
COc1cccc(C(=O)N[C@H]2C[C@H]3CC[C@@H](C2)N3c2ccc(C(=O)NCc3cc(F)ccc3F)cn2)c1C [N-[(2,5-difluorophenyl)methyl]-6-[3-endo-({[2-methyl-3-(methyloxy)phenyl]carbonyl}amino)-8-azabicyclo[3.2.1]oct-8-yl]pyridine-3-carboxamide]	6.00 to 6.30
COc1cccc(C(=O)N[C@H]2C[C@H]3CC[C@@H](C2)N3c2ccc(C(=O)NCc3c(F)cccc3F)cn2)c1C [N-[(2,6-difluorophenyl)methyl]-6-[3-endo-({[2-methyl-3-(methyloxy)phenyl]carbonyl}amino)-8-azabicyclo[3.2.1]oct-8-yl]pyridine-3-carboxamide]	> 6.30
COc1cccc(C(=O)N[C@H]2C[C@H]3CC[C@@H](C2)N3c2ccc(C(=O)NCc3c(F)ccc(F)c3Cl)cn2)c1C [N-[(2-chloro-3,6-difluorophenyl)methyl]-6-[3-endo-({[2-methyl-3-(methyloxy)phenyl]carbonyl}amino)-8-azabicyclo[3.2.1]oct-8-yl]pyridine-3-carboxamide]	> 6.30
COc1cccc(C(=O)N[C@H]2C[C@H]3CC[C@@H](C2)N3c2ccc(C(=O)NCc3c(F)ccc(C)c3Cl)cn2)c1C [N-[(2-chloro-6-fluoro-3-methylphenyl)methyl]-6-[3-endo-({[2-methyl-3-(methyloxy)phenyl]carbonyl}amino)-8-azabicyclo[3.2.1]oct-8-yl]pyridine-3-carboxamide]	6.00 to 6.30
COc1cccc(C(=O)N[C@H]2C[C@H]3CC[C@@H](C2)N3c2ccc(C(=O)NCc3c(F)cccc3Cl)cn2)c1C [N-[(2-chloro-6-fluorophenyl)methyl]-6-[3-endo-({[2-methyl-3-(methyloxy)phenyl]carbonyl}amino)-8-azabicyclo[3.2.1]oct-8-yl]pyridine-3-carboxamide]	> 6.30
COc1cccc(C(=O)N[C@H]2C[C@H]3CC[C@@H](C2)N3c2ccc(C(=O)NCc3ccccc3Cl)cn2)c1C [N-[(2-chlorophenyl)methyl]-6-[3-endo-({[2-methyl-3-(methyloxy)phenyl]carbonyl}amino)-8-azabicyclo[3.2.1]oct-8-yl]pyridine-3-carboxamide]	> 6.30
COc1cccc(C(=O)N[C@H]2C[C@H]3CC[C@@H](C2)N3c2ccc(C(=O)NCc3ccccc3F)cn2)c1C [N-[(2-fluorophenyl)methyl]-6-[3-endo-({[2-methyl-3-(methyloxy)phenyl]carbonyl}amino)-8-azabicyclo[3.2.1]oct-8-yl]pyridine-3-carboxamide]	> 6.30
COc1cccc(C(=O)NC2CC3CCC(C2)N3c2ccc(C(=O)NC[C@H](C)O)cn2)c1C (stereo partly drawn) [N-[(2S)-2.hydroxypropyl]-6-[3-endo-({[2-methyl-3-(methyloxy)phenyl]carbonyl}amino)-8-azabicyclo[3.2.1]oct-8-yl]pyridine-3-carboxamide]	5.00 to 5.70

From US8012956B2, “Tropane compounds” (Exelixis, Inc., priority 2007, dated 2011)
